From patent publication US11634391B2, “Compounds which are inhibitors of Notum” (UCL BUSINESS LTD, priority 2018, dated 2023)
Where a name gives a salt, the structure may show the parent alone.

Each compound was assayed against notum carboxyesterase enzyme (Homo sapiens (Human), UniProt Q6P988) (assay: Biochemical Notum Enzymatic Activity Assay (OPTS substrate, fluorescence)). Conditions: 2 μM OPTS solution, 2.38 nM notum enzyme solution, 1 hour incubation at room temperature, fluorescence ex 485 nm / em 520 nm; n≥2.
Source text: Plate layout and measured fluorescence values were input into Dotmatics Studies data management tool.

Sequence of notum carboxyesterase enzyme (Q6P988 20-496): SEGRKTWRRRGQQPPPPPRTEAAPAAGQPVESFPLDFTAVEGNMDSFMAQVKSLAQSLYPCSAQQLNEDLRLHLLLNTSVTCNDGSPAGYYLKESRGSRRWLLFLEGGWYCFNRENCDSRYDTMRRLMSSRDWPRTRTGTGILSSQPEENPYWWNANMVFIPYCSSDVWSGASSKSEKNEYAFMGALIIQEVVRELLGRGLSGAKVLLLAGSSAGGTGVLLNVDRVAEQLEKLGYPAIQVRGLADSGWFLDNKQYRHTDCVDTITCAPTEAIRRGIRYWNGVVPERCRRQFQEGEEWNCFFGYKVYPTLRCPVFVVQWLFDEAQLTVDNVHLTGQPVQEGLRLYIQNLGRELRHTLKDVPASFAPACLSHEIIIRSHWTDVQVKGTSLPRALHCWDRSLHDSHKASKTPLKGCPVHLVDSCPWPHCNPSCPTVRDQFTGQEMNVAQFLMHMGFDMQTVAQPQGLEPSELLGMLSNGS

Compound | IC50 [µM]
4-(4-(1,3,4-oxadiazol-2-yl)-2-(trifluoromethyl)phenyl)pyrrolidine [Compound 280] | 0.405
OCc1cn(-c2ccc3ccccc3c2)nn1 [Compound 3, (1-(naphthalen-2-yl)-1H-1,2,3-triazol-4-yl)methanol] | 1.28
OCc1cn(-c2ccc3c(c2)OCO3)nn1 [Compound 4, (1-(benzo[d][1,3]dioxol-5-yl)-1H-1,2,3-triazol-4-yl)methanol] | 37.3
Cc1ccc(-n2cc(CO)nn2)cc1C [Compound 5, (1-(3,4-dimethylphenyl)-1H-1,2,3-triazol-4-yl)methanol] | 0.81
OCc1cn(-c2ccc3c(c2)OCCO3)nn1 [Compound 6, (1-(2,3-dihydrobenzo[b][1,4]dioxin-6-yl)-1H-1,2,3-triazol-4-yl)methanol] | 44.6
OCc1cn(-c2cccc(Cl)c2Cl)nn1 [Compound 7, (1-(2,3-dichlorophenyl)-1H-1,2,3-triazol-4-yl)methanol] | 6.77
OCc1cn(-c2ccc(Cl)cc2Cl)nn1 [Compound 8, (1-(2,4-dichlorophenyl)-1H-1,2,3-triazol-4-yl)methanol] | 7.2
OCc1cn(-c2ccc(Cl)c(C(F)(F)F)c2)nn1 [Compound 9, (1-(4-chloro-3-(trifluoromethyl)phenyl)-1H-1,2,3-triazol-4-yl)methanol] | 0.0935
OCc1cn(-c2ccc3nccnc3c2)nn1 [Compound 12, (1-(quinoxalin-6-yl)-1H-1,2,3-triazol-4-yl)methanol] | 52.5
OCc1cn(-c2ccc(C(F)(F)F)c(Cl)c2)nn1 [Compound 13, (1-(3-chloro-4-(trifluoromethyl)phenyl)-1H-1,2,3-triazol-4-yl)methanol] | 1.72
Cn1ncc2ccc(-n3cc(CO)nn3)cc21 [Compound 15, (1-(1-methyl-1H-indazol-6-yl)-1H-1,2,3-triazol-4-yl)methanol] | 86.1
OCc1cn(-c2ccc(Cl)c(OCc3ccccc3)c2)nn1 [Compound 17, (1-(3-(benzyloxy)-4-chlorophenyl)-1H-1,2,3-triazol-4-yl)methanol] | 5.69
OCc1cn(-c2ccc(Cl)c(OCC3CC3)c2)nn1 [Compound 18, (1-(4-chloro-3-(cyclopropylmethoxy)phenyl)-1H-1,2,3-triazol-4-yl)methanol] | > 10
OCc1cn(-c2ccc(Cl)c(Cl)c2)nn1 [Compound 19, (1-(3,4-dichlorophenyl)-1H-1,2,3-triazol-4-yl)methanol] | 0.484
OCc1cn(-c2ccccc2Cl)nn1 [Compound 20, (1-(2-chlorophenyl)-1H-1,2,3-triazol-4-yl)methanol] | 39.1
OCc1cn(-c2cccc(Cl)c2)nn1 [Compound 21, (1-(3-chlorophenyl)-1H-1,2,3-triazol-4-yl)methanol] | 9.49
OCc1cn(-c2cccc3ccccc23)nn1 [Compound 25, (1-(naphthalen-1-yl)-1H-1,2,3-triazol-4-yl)methanol] | 36.8
OCc1cn(-c2cc(Cl)ccc2Cl)nn1 [Compound 26, (1-(2,5-dichlorophenyl)-1H-1,2,3-triazol-4-yl)methanol] | 25.5
OCc1cn(-c2cc(Cl)cc(Cl)c2)nn1 [Compound 27, (1-(3,5-dichlorophenyl)-1H-1,2,3-triazol-4-yl)methanol] | 3.03
COc1cc(-n2cc(CO)nn2)ccc1Cl [Compound 30, (1-(4-chloro-3-methoxyphenyl)-1H-1,2,3-triazol-4-yl)methanol] | 6.61
NCc1cn(-c2ccc(Cl)c(Cl)c2)nn1 [Compound 31, (1-(3,4-dichlorophenyl)-1H-1,2,3-triazol-4-yl)methanamine] | 8.82

Compound | IC50 [µM]
NCc1cn(-c2cc(Cl)cc(Cl)c2)nn1 [Compound 36, (1-(3,5-dichlorophenyl)-1H-1,2,3-triazol-4-yl)methanamine hydrochloride] | 44.6
NCc1cn(-c2cccc(C(F)(F)F)c2)nn1 [Compound 38, (1-(3-(trifluoromethyl)phenyl)-1H-1,2,3-triazol-4-yl)methanamine hydrochloride] | 37.5
NCc1cn(-c2ccccc2)nn1 [Compound 39, (1-phenyl-1H-1,2,3-triazol-4-yl)methanamine] | 4.87
CC(O)c1cn(-c2ccc(Cl)c(Cl)c2)nn1 (stereo not shown) [Compound 40, 1-(1-(3,4-dichlorophenyl)-1H-1,2,3-triazol-4-yl)ethan-1-ol] | > 10
CC(C)(O)c1cn(-c2ccc(Cl)c(Cl)c2)nn1 [Compound 41, 2-(1-(3,4-dichlorophenyl)-1H-1,2,3-triazol-4-yl)propan-2-ol] | > 10
CC(=O)NCc1cn(-c2ccc(Cl)c(Cl)c2)nn1 [Compound 42, N-((1-(3,4-dichlorophenyl)-1H-1,2,3-triazol-4-yl)methyl)acetamide] | 19.5
COCc1cn(-c2ccc(Cl)c(Cl)c2)nn1 [Compound 43, 1-(3,4-dichlorophenyl)-4-(methoxymethyl)-1H-1,2,3-triazole] | 5.04
CN(C)Cc1cn(-c2ccc(Cl)c(Cl)c2)nn1 [Compound 44, 1-(1-(3,4-dichlorophenyl)-1H-1,2,3-triazol-4-yl)-N,N-dimethylmethanamine hydrochloride] | 74.5
OCc1ncn(-c2ccc(Cl)c(Cl)c2)n1 [Compound 47, (1-(3,4-dichlorophenyl)-1H-1,2,4-triazol-3-yl)methanol] | 49.5
CCOc1cccc(-c2nnc(N)s2)c1 [Compound 48, 5-(3-ethoxyphenyl)-1,3,4-thiadiazol-2-amine] | 85.9
FC(F)(F)c1ccc(-c2c[nH]nn2)cc1C(F)(F)F [Compound 49, 4-(3,4-bis(trifluoromethyl)phenyl)-1H-1,2,3-triazole] | 0.008
FC(F)(F)c1cc(-c2c[nH]nn2)ccc1Cl [Compound 50, 4-(4-chloro-3-(trifluoromethyl)phenyl)-1H-1,2,3-triazole] | 0.0194
FC(F)(F)c1cc(-c2cc[nH]n2)ccc1Cl [Compound 51, 3-(4-chloro-3-(trifluoromethyl)phenyl)-1H-pyrazole] | 1.36
Oc1c(F)cc(F)cc1-c1cc[nH]n1 [Compound 52, 2,4-difluoro-6-(1H-pyrazol-3-yl)phenol] | 3.27
Fc1ccc(-c2cc[nH]n2)cc1F [Compound 53, 3-(3,4-difluorophenyl)-1H-pyrazole] | 16.7
Clc1cccc(-c2cc[nH]n2)c1 [Compound 54, 3-(3-chlorophenyl)-1H-pyrazole] | 17.7
Clc1ccc(-c2cc[nH]n2)cc1Cl [Compound 55, 3-(3,4-dichlorophenyl)-1H-pyrazole] | 5.1
Fc1cc(F)cc(-c2cc[nH]n2)c1 [Compound 56, 3-(3,5-difluorophenyl)-1H-pyrazole] | 23
COc1ccc(-c2cc[nH]n2)c(O)c1 [Compound 57, 5-methoxy-2-(1H-pyrazol-3-yl)phenol] | 34.2
O=C(O)c1cn(-c2ccc(Cl)c(C(F)(F)F)c2)nn1 [Compound 58, 1-(4-chloro-3-(trifluoromethyl)phenyl)-1H-1,2,3-triazole-4-carboxylic acid] | 0.97
CC(C)c1ccc(-n2ccnn2)cc1 [Compound 60, 1-(4-isopropylphenyl)-1H-1,2,3-triazole] | 0.995

Compound | IC50 [µM]
Cc1ccc(-c2nnc(O)o2)cc1OC(F)(F)F [Compound 79, 5-(4-methyl-3-(trifluoromethoxy)phenyl)-1,3,4-oxadiazol-2-ol] | 0.036
Clc1ccc(-c2nnco2)cn1 [Compound 124, 2-(6-chloropyridin-3-yl)-1,3,4-oxadiazole] | 13
ClCc1nnc(-c2ccc(Cl)c(Cl)c2)o1 [Compound 125, 2-(chloromethyl)-5-(3,4-dichlorophenyl)-1,3,4-oxadiazole] | 61
OCc1nnc(-c2ccc(Cl)c(Cl)c2)o1 [Compound 126, [5-(3,4-dichlorophenyl)-1,3,4-oxadiazol-2-yl]methanol] | 0.726
OCc1cn(-c2ccc(Cl)c(Cl)c2)cn1 [Compound 127, [1-(3,4-dichlorophenyl)imidazol-4-yl]methanol] | 5.95
Clc1ccc(-c2n[nH]c(-c3ccccn3)n2)cc1Cl [Compound 130, 2-(3-(3,4-dichlorophenyl)-1H-1,2,4-triazol-5-yl)pyridine] | 0.596
N#Cc1nnc(-c2ccccc2)o1 [Compound 132, 5-phenyl-1,3,4-oxadiazole-2-carbonitrile] | 18.8
c1ccc(-n2cnnn2)cc1 [Compound 134, 1-phenyl-1H-tetrazole] | 19.4
Nc1nnc(-c2ccccc2)o1 [Compound 137, 5-phenyl-1,3,4-oxadiazol-2-amine] | 33
NCc1nnc(-c2ccccc2)o1 [Compound 140, (5-phenyl-1,3,4-oxadiazol-2-yl)methanamine] | 2.94
Nc1nc(-c2ccccc2)no1 [Compound 141, 3-phenyl-1,2,4-oxadiazol-5-amine] | 70.6
NCc1cc(-c2ccccc2)no1 [Compound 143, (3-phenylisoxazol-5-yl)methanamine] | 11.6
Cc1ccc(-c2csnn2)cc1 [Compound 145, 4-(p-tolyl)-1,2,3-thiadiazole] | 3.47
NCc1cc(-c2cccc(Cl)c2)no1 [Compound 147, (3-(3-chlorophenyl)isoxazol-5-yl)methanamine] | 15.2
Clc1ccc(-n2ccnc2)cc1 [Compound 149, 1-(4-chlorophenyl)imidazole] | 5.16
Clc1ccc(-c2ccno2)cc1 [Compound 150, 5-(4-chlorophenyl)isoxazole] | 1.1
Clc1ccc(-c2cnco2)cc1 [Compound 151, 5-(4-chlorophenyl)oxazole] | 5.74
NCc1nc(-c2ccc(Cl)cc2)no1 [Compound 152, [3-(4-chlorophenyl)-1,2,4-oxadiazol-5-yl]methanamine] | 43.1
Nc1nnc(-c2ccc(Cl)cc2)o1 [Compound 156, 2-amino-5-(4-chlorophenyl)-1,3,4-oxadiazole] | 11.9
